Measurements published in US11952365B2, “Anti-viral compounds” (Aligos Therapeutics, Inc., priority 2020, dated 2024).
Like-named read-outs stand apart in the source and are kept apart here.

Experiments:
human cathepsin L = target: T1, human cathepsin L (Homo sapiens, UniProt P07711); assay: cathepsin L assay; assay type: biochemical; details: 10 pM human cathepsin L, Z-FR-AMC 2 μM, class symbols
T1 construct: purchased R&D Systems
Outline: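 Reactions began by adding 2 μM (final) Z-FR-AMC substrate to 10 pM human cathepsin L that had been preincubated 30 min with inhibitor. Kinetic AMC fluorescence at 355/460 nm over 30 min at 2-min intervals; four-parameter fitting gave IC50 values.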

3CLpro = 3CLpro (Severe acute respiratory syndrome coronavirus 2, UniProt P0DTD1); assay: SARS-CoV-2 3CLpro protease assay (duplex, SAMDI-MS); assay type: biochemical; design: For the duplex assay, 3CLpro and HRV3C was added; details: 30 mins preincubation, class symbols
in vitro [1] = details: African green monkey, VeroE6 + CP (CC50), Vero E6-eGFP cells with CP-100356, absence of virus, MTS
[2] = test system: SARS-CoV-2-GHB-03021/2020; assay: microbe, parasite or virus in culture; assay type: cell-based; details: Severe acute respiratory syndrome coronavirus 2, Vero C1008, 96 h; read-out: VeroE6 + CP (EC50)
[3] = test system: human beta-coronavirus OC43; assay: microbe, parasite or virus in culture; assay type: cell-based; details: Betacoronavirus 1, OC43, HeLa, 144 h, OC43 in HeLa cells, 6 days at 33° C., read-out: EC50
[4] = test system: SARS-CoV-2-GHB-03021/2020; assay: SARS-CoV-2 Infection Model in Huh7 Cells; assay type: cell-based; details: Severe acute respiratory syndrome coronavirus 2, Huh-7, 96 h, SARS-CoV-2, day 4 p.i., MTS
[5] = Cytotoxicity plates without OC43 virus (cell-titer-glo); assay type: cell-based, human; details: human; HeLa cells without OC43 virus, class symbols
Outline: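 Run as a virus-free counterpart of the OC43 cytopathic-effect assay. Attached HeLa cells received compound dilutions in EMEM with 2% FBS and were kept 6 days at 33 °C. Cell viability was then measured by CellTiter-Glo luminescence.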

in vitro [6] = details: human
HRV3C = HRV3C (Human rhinovirus 14, UniProt P03303); assay: HRV3C protease assay (duplex, SAMDI-MS); assay type: biochemical, HRV; details: 30 mins preincubation
Outline: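 Readout is SAMDI mass spectrometry: biotinylated substrates, products and internal standards were immobilized on neutravidin monolayers and product formation taken as the AUC ratio to internal standard. Reactions ran 30 min at ambient temperature after 30 min compound preincubation, in duplex with 3CLpro. IC50 values came from four-parameter curve fitting.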

[7] = 3CLpro, read-out: SARS-Cov-2 IC50
[8] = HRV3C, bound, read-out: HRV IC50
[9] = HRV3C, class symbols, read-out: HRV IC50

SMILES | IC50 (human cathepsin L) [µM] | IC50 (3CLpro; [7]) [µM] | CC50 (in vitro [1]; class symbols) [µM] | EC50 [2] [µM] | EC50 ([3]; class symbols) [µM] | EC50 ([4]; class symbols) [µM] | CC50 at 6 days [5] [µM] | CC50 (in vitro [6]) [µM] | IC50 (HRV3C; [8]) [µM] | IC50 (3CLpro; SARS-Cov-2 IC50, 3CLpro) [µM] | CC50 (in vitro [1]; numeric bounds) [µM] | IC50 (HRV3C; HRV IC50, HRV3C, class symbols) [µM] | IC50 (HRV3C; [9]) [µM] | EC50 ([3]; bound) [µM] | EC50 ([4]; numeric bounds) [µM]
COc1cccc2[nH]c(C(=O)N3C[C@H]4[C@@H]([C@H]3C(=O)N[C@@H](C[C@@H]3CCCNC3=O)C(=O)COCc3ccccc3)C4(C)C)cc12 [Compound 49A, (1R,2S,5S)—N-[(2S)-4-(benzyloxy)-3-oxo-1-[(3S)-2-oxopiperidin-3-yl]butan-2-yl]-3-(4-methoxy-1H-indole-2-carbonyl)-6,6-dimethyl-3-azabicyclo[3.1.0]hexane-2-carboxamide] | ≥ 10 | 0.02 to 0.2 | > 10 | 1 to 10 | 0.1 to 1 | 1 to 10 | > 10 | > 10 | > 10 |  |  |  |  |  | 
COc1cccc2[nH]c(C(=O)N3C[C@@H]4CCC[C@@H]4[C@H]3C(=O)NC(C[C@@H]3CCNC3=O)C(=O)C(C)O)cc12 (stereo partly drawn) [Compound 62, (1S,3aR,6aS)—N-(4-hydroxy-3-oxo-1-((S)-2-oxopyrrolidin-3-yl)pentan-2-yl)-2-(4-methoxy-1H-indole-2-carbonyl)octahydrocyclopenta[c]pyrrole-1-carboxamide] | ≥ 10 | 0.2 to 2 | > 10 | 10 to 100 | 1 to 10 | 10 to 100 | > 10 | > 100 | > 10 |  |  |  |  |  | 
COCCNC(=O)C(=O)[C@H](C[C@@H]1CCNC1=O)NC(=O)[C@@H]1[C@H]2CCC[C@H]2CN1C(=O)c1cc2c(OC)cccc2[nH]1 [Compound 100, (1S,3aR,6aS)-2-(4-methoxy-1H-indole-2-carbonyl)-N—((S)-4-((2-methoxyethyl)amino)-3,4-dioxo-1-((S)-2-oxopyrrolidin-3-yl)butan-2-yl)octahydrocyclopenta[c]pyrrole-1-carboxamide] | ≥ 10 |  |  | 10 to 100 | 1 to 10 | 10 to 100 | > 10 | > 50 |  | 0.02 to 0.2 | > 100 | 0.2 to 2 |  |  | 
Cn1c(C(=O)N2CCC3(CC3)C[C@H]2C(=O)N[C@@H](C[C@@H]2CCNC2=O)C(=O)C(=O)NC2CC2)cc2ccccc21 [Compound 172] | 1 to 10 | < 0.02 |  | < 1 | 1 to 10 | < 1 | > 10 | > 10 |  |  | > 50 |  | 2 to 20 |  | 
CC(C)C(=O)OCC(=O)[C@H](C[C@@H]1CCNC1=O)NC(=O)[C@@H]1[C@H]2CCC[C@H]2CN1C(=O)c1cc2c(Cl)cc(Cl)cc2[nH]1 [Compound 125, (3S)-3-{[(1S,3aR,6aS)-2-(4,6-dichloro-1H-indole-2-carbonyl)-hexahydro-1H-cyclopenta[c]pyrrol-1-yl]formamido}-2-oxo-4-[(3S)-2-oxopyrrolidin-3-yl]butyl 2-methylpropanoate] | ≥ 10 | 0.2 to 2 |  | < 1 | < 0.1 | < 1 | > 10 | > 10 | > 10 |  | > 50 |  |  |  | 
COc1cccc2[nH]c(C(=O)N3C[C@@H]4CCC[C@@H]4[C@H]3C(=O)N[C@@H](C[C@@H]3CCNC3=O)C(=O)C(=O)N[C@@H]3CCOC3)cc12 [Compound 105] | ≥ 10 | 0.02 to 0.2 |  | 10 to 100 |  | 10 to 100 | > 10 | > 100 |  |  | > 100 |  | 0.2 to 2 | > 10 | 
COc1cccc2[nH]c(C(=O)N3C[C@H]4[C@@H]([C@H]3C(=O)N[C@@H](C[C@@H]3CCNC3=O)C(=O)C(N)=O)C4(C)C)cc12 [Compound 51, (3S)-3-{[(1R,2S,5S)-3-(4-methoxy-1H-indole-2-carbonyl)-6,6-dimethyl-3-azabicyclo[3.1.0]hexan-2-yl]formamido}-2-oxo-4-[(3S)-2-oxopyrrolidin-3-yl]butanamide] | 0.1 to 1 | < 0.02 |  | > 100 | 1 to 10 |  | > 10 | > 100 |  |  | > 100 |  | 0.2 to 2 |  | > 100
O=C1NCC[C@H]1C[C@H](NC(=O)[C@@H]1[C@H]2CCC[C@H]2CN1C(=O)c1cc(S(=O)(=O)c2ccccc2)c[nH]1)C(=O)CO [Compound 82, (1S,3aR,6aS)-2-[4-(benzenesulfonyl)-1H-pyrrole-2-carbonyl]-N-[(2S)-4-hydroxy-3-oxo-1-[(3S)-2-oxopyrrolidin-3-yl]butan-2-yl]-hexahydro-1H-cyclopenta[c]pyrrole-1-carboxamide] | ≥ 10 | 0.02 to 0.2 |  | 10 to 100 |  |  | > 10 | > 50 |  |  | > 50 |  | 2 to 20 | > 10 | > 50
COc1cccc2[nH]c(C(=O)N3C[C@@H]4CCC[C@@H]4[C@H]3C(=O)N[C@@H](CC3CC(C)(C)NC3=O)C(=O)CO)cc12 (relative stereo) [Compound 70_1, (1S,3aR,6aS)—N—((S)-1-((R*)-5,5-dimethyl-2-oxopyrrolidin-3-yl)-4-hydroxy-3-oxobutan-2-yl)-2-(4-methoxy-1H-indole-2-carbonyl)octahydrocyclopenta[c]pyrrole-1-carboxamide] | ≥ 10 | < 0.02 | > 10 | < 1 | 0.1 to 1 | 1 to 10 | > 10 | > 10 |  |  |  |  | 0.2 to 2 |  | 
O=C1NCC[C@H]1C[C@H](NC(=O)[C@@H]1[C@H]2CCC[C@H]2CN1C(=O)c1cc2c(Cl)cccc2[nH]1)C(=O)COCc1ccccc1 [Compound 60A, (1S,3aR,6aS)—N-[(2S)-4-(benzyloxy)-3-oxo-1-[(3S)-2-oxopyrrolidin-3-yl]butan-2-yl]-2-(4-chloro-1H-indole-2-carbonyl)-hexahydro-1H-cyclopenta[c]pyrrole-1-carboxamide] | ≥ 10 | 0.2 to 2 |  | 1 to 10 | < 0.1 | 1 to 10 | > 10 | 1 to 10 | > 10 |  | > 100 |  |  |  | 
COc1cccc2[nH]c(C(=O)N3C[C@@H]4CCC[C@@H]4[C@H]3C(=O)N[C@@H](CN3CC[C@H](O)C3=O)C(=O)C(=O)NC3CC3)cc12 [Compound 115, (1S,3aR,6aS)—N—((S)-4-(cyclopropylamino)-1-((S)-3-hydroxy-2-oxopyrrolidin-1-yl)-3,4-dioxobutan-2-yl)-2-(4-methoxy-1H-indole-2-carbonyl)octahydrocyclopenta[c]pyrrole-1-carboxamide] | ≥ 10 | 2 to 20 |  | > 50 |  |  | > 10 | > 10 | > 10 |  | > 50 |  |  | > 10 | > 50
COc1cc(Cl)c(Cl)c2[nH]c(C(=O)N3C[C@@H]4CCC[C@@H]4[C@H]3C(=O)N[C@@H](C[C@@H]3CCNC3=O)C(=O)CO)cc12 [Compound 158, (1S,3aR,6aS)-2-(6,7-dichloro-4-methoxy-1H-indole-2-carbonyl)-N-[(2S)-4-hydroxy-3-oxo-1-[(3S)-2-oxopyrrolidin-3-yl]butan-2-yl]-hexahydro-1H-cyclopenta[c]pyrrole-1-carboxamide] | ≥ 10 | < 0.02 |  | < 1 | 0.1 to 1 | < 1 | > 10 | > 10 |  |  | > 50 |  | 2 to 20 |  | 
COc1cccc2[nH]c(C(=O)N3C[C@@H]4CCC[C@@H]4[C@H]3C(=O)N[C@@H](C[C@@H]3CCNC3=O)C(=O)c3nc4ccccc4s3)cc12 [Compound 50, (1S,3aR,6aS)—N-[(2S)-1-(1,3-benzothiazol-2-yl)-1-oxo-3-[(3S)-2-oxopyrrolidin-3-yl]propan-2-yl]-2-(4-methoxy-1H-indole-2-carbonyl)-hexahydro-1H-cyclopenta[c]pyrrole-1-carboxamide] | ≥ 10 | 0.02 to 0.2 |  | 1 to 10 | 0.1 to 1 | 1 to 10 | > 10 | > 10 | > 10 |  | > 100 |  |  |  | 
